Data reported in patent publication US10681909B2, “Herbicidal triazoles” (FMC Corporation, priority 2014, dated 2020).

Columns and labels:
foxtail, giant [1] = experiment: Test A postemergence; format: in vivo, Setaria faberii; details: 0 to 100 scale (0 no effect, 100 complete control), approx. 10 d
Outline: (§1)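 Herbicidal response was scored on plants treated pre- or postemergence with surfactant-containing, non-phytotoxic solvent formulations. Preemergence meant a directed spray onto soil (loam–sand) holding sown seed; postemergence plants were at one to two leaves.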

waterhemp = experiment: Test C postemergence; format: in vivo, Amaranthus rudis
Outline: (§2)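 Surfactant-containing, non-phytotoxic solvent formulations of each compound were applied either preemergence to seeds in a loam soil–sand blend or postemergence to plants 2 to 18 cm tall (1- to 4-leaf stage). Postemergence plants were grown in peat moss–vermiculite medium.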

kochia = experiment: Test C postemergence; format: in vivo, Kochia scoparia
Outline: as §2

barnyardgrass [2] = experiment: Test C postemergence; format: in vivo, Echinochloa crus-galli
Outline: as §2

pigweed [3] = experiment: Test A postemergence; format: in vivo, Amaranthus retroflexus; details: 0 to 100 scale (0 no effect, 100 complete control), approx. 10 d
Outline: as §1

blackgrass = experiment: Test C postemergence; format: in vivo, Alopecurus myosuroides
Outline: as §2

lambsquarters = experiment: Test C postemergence; format: in vivo, Chenopodium album
Outline: as §2

crabgrass, large = experiment: Test C postemergence; format: in vivo, Digitaria sanguinalis
Outline: as §2

ragweed = experiment: Test C postemergence; format: in vivo, Ambrosia elatior
Outline: as §2

wheat = experiment: Test A postemergence; format: in vivo, Triticum aestivum; details: 0 to 100 scale (0 no effect, 100 complete control), approx. 10 d
Outline: as §1

galium = experiment: Test C postemergence; format: in vivo, Galium aparine
Outline: as §2

corn = experiment: Test C postemergence; format: in vivo, Zea mays
Outline: as §2

barnyardgrass [4] = experiment: Test A preemergence; format: in vivo, Echinochloa crus-galli; details: 0 to 100 scale (0 no effect, 100 complete control)
Outline: as §1

velvetleaf = experiment: Test C postemergence; format: in vivo, Abutilon theophrasti
Outline: as §2

pigweed [5] = experiment: Test C postemergence; format: in vivo, Amaranthus retroflexus
Outline: as §2

barnyardgrass [6] = experiment: Test B flooded paddy test; format: in vivo, Echinochloa crus-galli; details: 250 g ai/ha, applied to paddy water at 2-leaf stage, visual rating after 13 to 15 d, scale 0 (no effect) to 100 (complete control)
Outline: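 Pots were flooded to 3 cm above the soil at treatment, and compounds were applied directly into the paddy water. That depth was held throughout. After 13 to 15 d in a greenhouse, plants were rated visually against untreated controls.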

foxtail, giant [7] = experiment: Test C postemergence; format: in vivo, Setaria faberii
Outline: as §2

oilseed rape = experiment: Test C postemergence; format: in vivo, Brassica napus
Outline: as §2

johnsongrass = experiment: Test C postemergence; format: in vivo, Sorghum halepense
Outline: as §2

CCOc1nc(-c2ccccc2)nn1Cc1ccnc(C(F)(F)F)c1 [Compound 27]
100: Plant response rating, Foxtail, Giant (foxtail, giant [1]; 500 g ai/ha) | Plant response rating, Pigweed (pigweed [3]; 125 g ai/ha) | Plant response rating, Pigweed (pigweed [3]; 500 g ai/ha) | Plant response rating, Barnyardgrass (barnyardgrass [4]; 125 g ai/ha) | Plant response rating, Barnyardgrass (barnyardgrass [4]; 500 g ai/ha, approx. 10 d) | Plant response rating (scale of 0 to 100 where 0 is no effect and 100 is complete control) (johnsongrass; 125 g ai/ha)
50: Plant response rating (scale of 0 to 100 where 0 is no effect and 100 is complete control) (blackgrass; 250 g ai/ha) | Plant response rating (scale of 0 to 100 where 0 is no effect and 100 is complete control) (velvetleaf; 62 g ai/ha) | Plant response rating, Barnyardgrass, Flood (barnyardgrass [6])
55: Plant response rating (scale of 0 to 100 where 0 is no effect and 100 is complete control) (barnyardgrass [2]; 250 g ai/ha) | Plant response rating (scale of 0 to 100 where 0 is no effect and 100 is complete control) (ragweed; 31 g ai/ha)
98: Plant response rating (scale of 0 to 100 where 0 is no effect and 100 is complete control) (waterhemp; 250 g ai/ha) | Plant response rating (scale of 0 to 100 where 0 is no effect and 100 is complete control) (lambsquarters; 125 g ai/ha) | Plant response rating (scale of 0 to 100 where 0 is no effect and 100 is complete control) (lambsquarters; 250 g ai/ha)
5: Plant response rating (scale of 0 to 100 where 0 is no effect and 100 is complete control) (foxtail, giant [7]; 31 g ai/ha) | Plant response rating (scale of 0 to 100 where 0 is no effect and 100 is complete control) (johnsongrass; 31 g ai/ha)
45: Plant response rating (scale of 0 to 100 where 0 is no effect and 100 is complete control) (crabgrass, large; 250 g ai/ha) | Plant response rating (scale of 0 to 100 where 0 is no effect and 100 is complete control) (velvetleaf; 31 g ai/ha) | Plant response rating (scale of 0 to 100 where 0 is no effect and 100 is complete control) (johnsongrass; 62 g ai/ha)
70: Plant response rating (scale of 0 to 100 where 0 is no effect and 100 is complete control) (ragweed; 250 g ai/ha) | Plant response rating, Wheat (wheat; 500 g ai/ha) | Plant response rating (scale of 0 to 100 where 0 is no effect and 100 is complete control) (velvetleaf; 250 g ai/ha)
10: Plant response rating (scale of 0 to 100 where 0 is no effect and 100 is complete control) (barnyardgrass [2]; 31 g ai/ha) | Plant response rating (scale of 0 to 100 where 0 is no effect and 100 is complete control) (blackgrass; 31 g ai/ha) | Plant response rating (scale of 0 to 100 where 0 is no effect and 100 is complete control) (crabgrass, large; 31 g ai/ha) | Plant response rating (scale of 0 to 100 where 0 is no effect and 100 is complete control) (corn; 31 g ai/ha) | Plant response rating (scale of 0 to 100 where 0 is no effect and 100 is complete control) (corn; 125 g ai/ha) | Plant response rating (scale of 0 to 100 where 0 is no effect and 100 is complete control) (foxtail, giant [7]; 62 g ai/ha) | Plant response rating (scale of 0 to 100 where 0 is no effect and 100 is complete control) (foxtail, giant [7]; 125 g ai/ha)
85: Plant response rating (scale of 0 to 100 where 0 is no effect and 100 is complete control) (lambsquarters; 31 g ai/ha) | Plant response rating (scale of 0 to 100 where 0 is no effect and 100 is complete control) (galium; 125 g ai/ha) | Plant response rating (scale of 0 to 100 where 0 is no effect and 100 is complete control) (pigweed [5]; 31 g ai/ha) | Plant response rating (scale of 0 to 100 where 0 is no effect and 100 is complete control) (pigweed [5]; 62 g ai/ha)
20: Plant response rating (scale of 0 to 100 where 0 is no effect and 100 is complete control) (crabgrass, large; 62 g ai/ha) | Plant response rating, Wheat (wheat; 125 g ai/ha)
25: Plant response rating (scale of 0 to 100 where 0 is no effect and 100 is complete control) (barnyardgrass [2]; 125 g ai/ha) | Plant response rating (scale of 0 to 100 where 0 is no effect and 100 is complete control) (ragweed; 125 g ai/ha) | Plant response rating (scale of 0 to 100 where 0 is no effect and 100 is complete control) (corn; 250 g ai/ha)
35: Plant response rating (scale of 0 to 100 where 0 is no effect and 100 is complete control) (blackgrass; 125 g ai/ha)
90: Plant response rating, Foxtail, Giant (foxtail, giant [1]; 125 g ai/ha) | Plant response rating (scale of 0 to 100 where 0 is no effect and 100 is complete control) (waterhemp; 31 g ai/ha) | Plant response rating (scale of 0 to 100 where 0 is no effect and 100 is complete control) (galium; 31 g ai/ha) | Plant response rating (scale of 0 to 100 where 0 is no effect and 100 is complete control) (galium; 62 g ai/ha) | Plant response rating (scale of 0 to 100 where 0 is no effect and 100 is complete control) (galium; 250 g ai/ha) | Plant response rating (scale of 0 to 100 where 0 is no effect and 100 is complete control) (oilseed rape; Oilsee Rape, 250 g ai/ha) | Plant response rating (scale of 0 to 100 where 0 is no effect and 100 is complete control) (oilseed rape; Oilseed Rape, 31 g ai/ha) | Plant response rating (scale of 0 to 100 where 0 is no effect and 100 is complete control) (oilseed rape; Oilseed Rape, 62 g ai/ha) | Plant response rating (scale of 0 to 100 where 0 is no effect and 100 is complete control) (oilseed rape; Oilseed Rape, 125 g ai/ha)
95: Plant response rating (scale of 0 to 100 where 0 is no effect and 100 is complete control) (waterhemp; 62 g ai/ha) | Plant response rating (scale of 0 to 100 where 0 is no effect and 100 is complete control) (waterhemp; 125 g ai/ha) | Plant response rating (scale of 0 to 100 where 0 is no effect and 100 is complete control) (kochia; 31 g ai/ha) | Plant response rating (scale of 0 to 100 where 0 is no effect and 100 is complete control) (kochia; 62 g ai/ha) | Plant response rating (scale of 0 to 100 where 0 is no effect and 100 is complete control) (kochia; 125 g ai/ha) | Plant response rating (scale of 0 to 100 where 0 is no effect and 100 is complete control) (kochia; 250 g ai/ha) | Plant response rating (scale of 0 to 100 where 0 is no effect and 100 is complete control) (lambsquarters; 62 g ai/ha) | Plant response rating (scale of 0 to 100 where 0 is no effect and 100 is complete control) (pigweed [5]; 125 g ai/ha) | Plant response rating (scale of 0 to 100 where 0 is no effect and 100 is complete control) (pigweed [5]; 250 g ai/ha)
60: Plant response rating (scale of 0 to 100 where 0 is no effect and 100 is complete control) (ragweed; 62 g ai/ha) | Plant response rating (scale of 0 to 100 where 0 is no effect and 100 is complete control) (velvetleaf; 125 g ai/ha)
15: Plant response rating (scale of 0 to 100 where 0 is no effect and 100 is complete control) (barnyardgrass [2]; 62 g ai/ha) | Plant response rating (scale of 0 to 100 where 0 is no effect and 100 is complete control) (blackgrass; 62 g ai/ha) | Plant response rating (scale of 0 to 100 where 0 is no effect and 100 is complete control) (crabgrass, large; 125 g ai/ha) | Plant response rating (scale of 0 to 100 where 0 is no effect and 100 is complete control) (corn; 62 g ai/ha) | Plant response rating (scale of 0 to 100 where 0 is no effect and 100 is complete control) (foxtail, giant [7]; 250 g ai/ha)
